Results taken from patent US8828674B2, “Functional identification of proteins underlying Icrac activity in a cell” (The Queen's Medical Center, priority 2007, dated 2014).

Tests used:
CRACM3 [1] = target: T1, CRACM3 (Homo sapiens, UniProt Q9BRQ5)
Procedure: (§1) To assess the functional properties of CRACM proteins, all three CRACM species were overexpressed in HEK293 cells. CRAC currents were measured in response to rapid Ca2+ store depletion by 20 μM inositol 1,4,5-trisphosphate (IP3) as well as following passive store depletion by perfusing cells with 20 mM BAPTA, which results in a slower store depletion that relies on Ca2+ leaking from stores. Full length human CRACM1 (accession no. NM_032790) and CRACM1-E106Q were subcloned as described. Full length human CRACM2 (accession no. NM_032831) and CRACM3 (accession no. NM_152288) were amplified from cDNAs (purchased from Origene) using high fidelity Pfu Ultra High Fidelity polymerase (Stratagene) and subcloned into pCAGGS-IRES-GFP vector. […] CRACM proteins were over-expressed in HEK293 cells stably expressing STIM1 using lipofectamine 2000 (Invitrogen) and the GFP expressing cells were selected by fluorescence.
(§2) Patch-clamp experiments were performed in the tight-seal whole-cell configuration at 21-25° C. High-resolution current recordings were acquired using the EPC-9 (HEKA). Voltage ramps of 50 ms duration spanning a range of −150 to +150 mV were delivered from a holding potential of 0 mV at a rate of 0.5 Hz over a period of 100-300 sec. All voltages were corrected for a liquid junction potential of 10 mV. Currents were filtered at 2.9 kHz and digitized at 100 μs intervals. Capacitive currents were determined and corrected before each voltage ramp. Extracting the current amplitude at −80 mV from individual ramp current records assessed the low-resolution temporal development of currents. Where applicable, statistical errors of averaged data are given as means± S.E.M. with n determinations. Standard external solutions were as follows (in mM): 120 NaCl, 2 MgCl2, 10 CaCl2, 10 TEA-Cl, 10 HEPES, 10 glucose, pH 7.2 with NaOH, 300 mOsm. In some experiments, Na^+-free solutions were applied, where NaCl was replaced equimolarly by tetraethylammonium-chloride (TEA-Cl). For Ca^2+-free external solutions CaCl2 was omitted, but Mg^2+ was retained. The divalent-free external solution (DVF) was based on the standard external solution but in the absence of CaCl2 and MgCl2 and additionally supplemented with 10 mM EDTA. Divalent replacement solutions were based on the standard external solution but with 10 mM CaCl2 replaced by 10 mM BaCl2. […] Standard internal solutions were as follows (in mM): 120 Cs-glutamate, 20 Cs-BAPTA, 3 MgCl2, 10 HEPES, 0.02 IP3, pH 7.2 with CsOH, 300 mOsm. In the experiments of FIG. 2, 10 mM EGTA was used and in FIG. 3, [Ca^2+]i was buffered to defined levels using 20 mM Cs-BAPTA and appropriate concentrations of CaCl2 as calculated with WebMaxC. For passive-depletion experiments, IP3 was omitted from the internal solution. All chemicals were purchased from Sigma-Aldrich Co.
Normally, CRAC currents are highly Ca^2+-selective and poorly permeable to K^+ or Cs^+, resulting in positive reversal potentials.
The monovalent versus divalent cation permeation was investigated in ion substitution experiments, where either Ca^2+ was removed from the extracellular solution or Na^+ was replaced by TEA.

CRACM1 = CRACM1 (Homo sapiens, UniProt Q96D31); conditions: without STIM1 overexpression
Sequence of CRACM1 (Q96D31 whole entry): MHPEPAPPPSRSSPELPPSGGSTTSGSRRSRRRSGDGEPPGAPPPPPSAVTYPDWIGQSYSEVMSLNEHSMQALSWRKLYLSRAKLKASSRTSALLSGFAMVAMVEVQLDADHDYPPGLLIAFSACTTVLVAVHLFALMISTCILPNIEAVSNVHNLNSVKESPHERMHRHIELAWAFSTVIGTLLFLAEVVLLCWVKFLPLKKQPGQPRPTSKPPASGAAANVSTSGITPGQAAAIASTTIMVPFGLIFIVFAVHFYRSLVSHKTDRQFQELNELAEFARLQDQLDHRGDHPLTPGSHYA
Procedure: as §1, with “described.” for “described. Full length human CRACM2 (accession no. NM_032831) and CRACM3 (accession no. NM_152288) were amplified from cDNAs (purchased from Origene) using high fidelity Pfu Ultra High Fidelity polymerase (Stratagene) and subcloned into pCAGGS-IRES-GFP vector.”
(§3) Patch-clamp experiments were performed in the tight-seal whole-cell configuration at 21-25° C. […] Capacitive currents were determined and corrected before each voltage ramp. Extracting the current amplitude at −80 mV from individual ramp current records assessed the low-resolution temporal development of currents. […] In the experiments of FIG. 2, 10 mM EGTA was used and in FIG. 3, [Ca^2+]i was buffered to defined levels using 20 mM Cs-BAPTA and appropriate concentrations of CaCl2 as calculated with WebMaxC. […]

CRACM2 = CRACM2 (Homo sapiens, UniProt Q96SN7); conditions: 50 μM 2-APB
Sequence of CRACM2 (Q96SN7 whole entry): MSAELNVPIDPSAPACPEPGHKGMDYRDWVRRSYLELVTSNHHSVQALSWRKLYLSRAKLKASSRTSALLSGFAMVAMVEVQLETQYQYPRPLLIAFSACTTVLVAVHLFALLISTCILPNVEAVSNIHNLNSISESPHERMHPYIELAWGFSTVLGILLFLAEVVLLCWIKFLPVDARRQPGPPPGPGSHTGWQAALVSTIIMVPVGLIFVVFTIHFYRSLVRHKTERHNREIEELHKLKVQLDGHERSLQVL
Procedure: as §1, with “described.” for “described. Full length human CRACM2 (accession no. NM_032831) and CRACM3 (accession no. NM_152288) were amplified from cDNAs (purchased from Origene) using high fidelity Pfu Ultra High Fidelity polymerase (Stratagene) and subcloned into pCAGGS-IRES-GFP vector.”
as §3

CRACM1-E190A = CRACM1-E190A (Homo sapiens, UniProt Q96D31, E190A)
Sequence of CRACM1-E190A (Q96D31 whole entry E190A): as the sequence (Q96D31 whole entry) above, with E190A counted along it
Procedure: as §2

CRACM1-E106D = CRACM1-E106D (Homo sapiens, UniProt Q96D31, E106D)
Sequence of CRACM1-E106D (Q96D31 whole entry E106D): as the sequence (Q96D31 whole entry) above, with E106D counted along it
Procedure: as §2

CRACM3 [2] = target: T1, CRACM3; remark: listed apart in the source
Procedure: Patch-clamp experiments were performed in the tight-seal whole-cell configuration at 21-25° C. High-resolution current recordings were acquired using the EPC-9 (HEKA). Voltage ramps of 50 ms duration spanning a range of −150 to +150 mV were delivered from a holding potential of 0 mV at a rate of 0.5 Hz over a period of 100-300 sec. All voltages were corrected for a liquid junction potential of 10 mV. Currents were filtered at 2.9 kHz and digitized at 100 μs intervals. Capacitive currents were determined and corrected before each voltage ramp. Extracting the current amplitude at −80 mV from individual ramp current records assessed the low-resolution temporal development of currents. Where applicable, statistical errors of averaged data are given as means± S.E.M. with n determinations. Standard external solutions were as follows (in mM): 120 NaCl, 2 MgCl2, 10 CaCl2, 10 TEA-Cl, 10 HEPES, 10 glucose, pH 7.2 with NaOH, 300 mOsm. In some experiments, Na^+-free solutions were applied, where NaCl was replaced equimolarly by tetraethylammonium-chloride (TEA-Cl). For Ca^2+-free external solutions CaCl2 was omitted, but Mg^2+ was retained. […] In the experiments of FIG. 2, 10 mM EGTA was used and in FIG. 3, [Ca^2+]i was buffered to defined levels using 20 mM Cs-BAPTA and appropriate concentrations of CaCl2 as calculated with WebMaxC. […]

[3] = 50 μM 2-APB, 0 Ca Sodium Ringer

NCCOB(c1ccccc1)c1ccccc1 [2-APB, 2-aminoethoxydiphenyl borate] was tested, and the “Change of outward current on 2-APB application in Ca2+-free extracellular solution” value (CRACM3 [1]; [3]) was “nearly tripled”, the “Reduction of average inward current on 2-APB application in Ca2+-free extracellular solution versus Ca2+-containing solutions” value (CRACM3 [1]; [3]) was 53% and the “Reversal potential with 2-APB in Ca2+-free extracellular solution” value (CRACM3 [1]; 50 μM 2-APB, 0 Ca Sodium Ringer, shift from +94 mV) was “+10 mV”. For the same compound, the “Effect of replacing extracellular Na+ with TEA+ on inward or outward currents induced by 2-APB” value (CRACM3 [1]; 50 μM 2-APB, 10 mM Ca TEA Ringer) was “no significant effect”, the “Reversal potential after 2-APB application, internal K+” value (CRACM3 [1]; 50 μM 2-APB, IP3, K+-based internal solution) was 29 mV and the “Average 2-APB-mediated current compared to CRACM3 currents without STIM1 overexpression” value (CRACM3 [1]; 50 μM 2-APB, STIM1 cells with CRACM3) was “approximately twice as large”. For the same compound, the “Reversal potential with 2-APB in 10Ca/TEA Ringer” value (CRACM3 [1]; 50 μM 2-APB, red I/V of FIG. 6G) was “+30 mV”, the “Permeability ratio PCs/PCs in presence of 2-APB” value (CRACM3 [1]; Goldman-Hodgkin-Katz analysis, 10Ca/TEA Ringer (red I/V), +30 mV) was 50 and the “Permeability ratio PNs/PCs in presence of 2-APB” value (CRACM3 [1]; Goldman-Hodgkin-Katz analysis, Ca2+-free conditions, Erev=+10 mV) was 1.5. For the same compound, the “Permeability ratio PCa/PNa in presence of 2-APB” value (CRACM3 [1]; Goldman-Hodgkin-Katz analysis, normally in excess of 100-fold) was 33, the “Store- and STIM1-independent gating of wild-type CRACM1 by 2-APB” value (CRACM1) was “largely resistant” and the “Sensitivity of CRACM2 to 2-APB-mediated inhibition (versus CRACM1)” value (CRACM2) was “significantly less sensitive”. The “Response of CRACM1-E190A co-expressed with STIM1 to 2-APB” value (CRACM1-E190A; 50 μM 2-APB after IP3-induced CRAC currents fully activated) was “large facilitation followed by rapid inhibition”, the “Response of CRACM1-E190A expressed alone, without STIM1, to 2-APB” value (CRACM1-E190A; 50 μM 2-APB, wild-type HEK293, no IP3, [Ca2+]i ~150 nM) was “large, transient increase in both inward and outward current” and the “Reversal potential of the 2-APB-facilitated current” value (CRACM1-E190A; CRACM1-E190A with STIM1, 50 μM 2-APB, +55 mV before 2-APB) was “+33 mV”. The “Response of CRACM1-E106D expressed alone to 2-APB” value (CRACM1-E106D; 50 μM 2-APB, [Ca2+]i 150 nM, no STIM1) was “rapid increase in inward current, followed by complete block, and a slow reactivation”, the “Reversal potential of the reactivated current after 2-APB” value (CRACM1-E106D; CRACM1-E106D alone, +16 mV for the mutant without 2-APB) was 0 mV and the “Current with 2-APB administered intracellularly” value (CRACM3 [2]; 50 μM 2-APB in pipette solution, [Ca2+]i ~150 nM) was “no store-operated or 2-APB induced current was elicited”. For the same compound, the “Reversal potential of the 2-APB-evoked CRACM3 current” value (CRACM3 [2]; 50 μM 2-APB, CRACM3 alone, FIG. 6D) was “+30 mV”.
